The nature of this test: Oxygen radical absorbance capacity (ORAC) assay. Type of test: biochemical. The procedure: The combined anti-oxidant effects of combinations of ascorbic acid with various other known anti-oxidants was tested using the oxygen radical absorbance capacity (ORAC) assay according to the method described by Ou B, Hampsch Woodill M, Prior R. L. Development and validation of an improved oxygen radical absorbance capacity assay using fluorescein as the fluorescent probe. J Agric Food Chem. 2001, 49:4619 (using a slightly different ex/em wavelength readout and a narrower range of Trolox standards). This assay measures the ability of anti-oxidant “chain breakers” to inhibit the decline in disodium fluorescein (FL) fluorescence that is induced by the peroxyl radical generator, 2′,2′-Azobis (2-amidinopropane) dihydrochloride (AAPH). Distilled water was used as the negative control. Trolox (6-hydroxy-2,5,7,8-tetramethylchroman-2-carboxylic acid, a water-soluble analog of vitamin E sold by Hoffman-LaRoche having antioxidant properties) was used as the positive control.
The final ORAC values were calculated from the regression equation of net areas under the FL decay curve using a formula where Area Under the Curve (AUC)=1+(Point 1+Point 2+Point 3+ . . . +Point 15)/Point 1. The Trolox standards were then plotted as micromoles over AUC. The samples were solved using their AUC yielding the values in micromole (μmol) Trolox equivalent (TE) per ml. Applied BioSystems Cytofluor 4000 fluorometer & software was used for quantification. ORAC values of the test materials were expressed in μmoles TE/ml (TE=Trolox Equivalents).
All ingredients were stored at room temperature and then diluted with distilled water into aqueous stock solutions for testing. Further dilutions were made in distilled water within 24 h from testing.

[1] abbreviates: second test run (second Table 3).

Each structure is given as a SMILES string.

On to `Cc1c(C)c2c(c(C)c1O)CCC(C)(C(=O)O)O2` (centres unmarked) [Trolox, 6-hydroxy-2,5,7,8-tetramethylchroman-2-carboxylic acid], for which the ORAC is 3940 µmol/g (first test run, positive control) and 4368 µmol/g (second test run, positive control). `O=C1O[C@H]([C@@H](O)CO)C(O)=C1O` [10% ascorbic acid, ascorbic acid]: the ORAC by setting is: (first test run (first Table 3)) 751 μmoles TE/ml; under setting [1], 838 μmoles TE/ml. For `CCOC1=C(O)C(=O)O[C@@H]1[C@@H](O)CO` [0.5% Ethyl L-Ascorbic Acid, Ethyl L-Ascorbic Acid] the same measures were 13 μmoles TE/ml and 7 μmoles TE/ml. With `O=C1O[C@H]([C@@H](O)CO)C([O-])=C1OP(=O)([O-])[O-].[Na+].[Na+].[Na+]` [0.5% sodium ascorbyl phosphate, sodium ascorbyl phosphate], the ORAC (first test run (first Table 3)) was 10 μmoles TE/ml. For the compound `Cn1c(=O)c2c(ncn2C)n(C)c1=O` [2% caffeine, caffeine], the ORAC by setting is: (first test run (first Table 3)) 10 μmoles TE/ml; under setting [1], 0 μmoles TE/ml. For the compound `COc1cc(CCC(=O)CC(=O)CCc2ccc(O)c(OC)c2)ccc1O` [0.5% Tetrahydrodiferuloyl-methane, Tetrahydrodiferuloyl-methane], the ORAC (first test run (first Table 3)) amounted to 4 μmoles TE/ml. The same measure, in the same setting: for `O=C(O[C@@H]1Cc2c(O)cc(O)cc2O[C@@H]1c1cc(O)c(O)c(O)c1)c1cc(O)c(O)c(O)c1` [0.1% EGCG, epigallocatechin gallate] the value was 7 μmoles TE/ml.

(Values after patent US20230346678A1, “TOPICAL COMPOSITIONS CONTAINING VITAMIN C” (priority 2022, published 2023).)
